# In patent publication US20070128217A1 (priority 2003, published 2007):
# Experiments:
# [1] = test system: rabbit serum obtained by immunizing a rabbit with the SARS-CoV strain Frankfurt 1; assay type: binding; design: Binding of a rabbit serum to linear peptides / Binding of a rabbit serum to looped peptides / Rabbit serum linear peptides / Rabbit serum looped peptides / Binding of a rabbit serum to linear peptides of protein N of SARS-CoV Urbani (Rabbit serum linear peptides) / Binding of a rabbit serum to looped/cyclic peptides of protein N of SARS-CoV Urbani (Rabbit serum looped peptides): unit not given here
# [2] = test system: control sera (pooled serum of ten healthy LUMC hospital workers; commercial negative donor pooled serum from the Dutch bloodbank); assay type: binding, human; design: Binding of Control serum LUMC to linear peptides / Binding of Control serum Blood-bank to linear peptides / Binding of Control serum LUMC to looped peptides / Binding of Control Serum Blood-Bank to Looped peptides / Binding of Control serum LUMC to linear peptides of the protein M of SARS-CoV Urbani / Binding of Control serum Blood-bank to linear peptides of the protein M of SARS-CoV Urbani / Binding of Control serum LUMC to looped peptides of the protein M of SARS-CoV Urbani / Binding of Control Serum Blood-Bank to Looped peptides of the protein M of SARS-CoV Urbani: unit not given here
# [3] = test system: antibodies in sera from SARS patients (sera 1a, 1b, 2, 6, 37, 62, London, SARS-yellow, SARS-green); assay type: binding, human; design: Binding of serum 6 to linear peptides of protein X1 of SARS-CoV Urbani / Binding of serum 37 to linear peptides of protein X1 of SARS-CoV Urbani / Binding of serum 6 to looped/cyclic peptide (PEPSCAN-ELISA) / Binding of serum 37 to looped/cyclic peptide (PEPSCAN-ELISA) / Binding of serum 37 to looped/cyclic peptides of protein X1 of SARS-CoV Urbani / Binding of serum 6 to linear peptides of protein X2 / Binding of serum 37 to linear peptides of protein X2 / Binding of serum 37 to looped/cyclic peptides of protein X2 of SARS-CoV Urbani / Binding of serum 6 to linear peptides of protein M of SARS-CoV Urbani / Binding of serum 37 to linear peptides of protein M of SARS-CoV Urbani / Binding of serum 6 to looped/cyclic peptides of protein M of SARS-CoV Urbani / Binding of serum 37 to looped/cyclic peptides of protein M of SARS-CoV Urbani / Binding of serum 6 to linear peptides of protein X3 of SARS-CoV Urbani / Binding of serum 37 to linear peptides of protein X3 of SARS-CoV Urbani / Binding of serum 37 to looped/cyclic peptides of protein X3 of SARS-CoV Urbani / Binding of serum 6 to linear peptides of protein X4 of SARS-CoV Urbani / Binding of serum 37 to linear peptides of protein X4 of SARS-CoV Urbani / Binding of serum 37 to looped/cyclic peptides of protein X4 of SARS-CoV Urbani / Binding of serum 6 to linear peptides of protein X5 of SARS-CoV Urbani / Binding of serum 37 to linear peptides of protein X5 of SARS-CoV Urbani / Binding of serum 37 to looped/cyclic peptides of protein X5 of SARS-CoV Urbani / Binding of serum 6 to linear peptides of protein N of SARS-CoV Urbani / Binding of serum 37 to linear peptides of protein N of SARS-CoV Urbani / Binding of serum 6 to linear peptide (PEPSCAN-ELISA) / Binding of serum 1a to looped/cyclic peptides of protein N of SARS-CoV Urbani / Binding of serum 1b to looped/cyclic peptides of protein N of SARS-CoV Urbani / Binding of serum 2 to looped/cyclic peptides of protein N of SARS-CoV Urbani / Binding of serum 6 to looped/cyclic peptides of protein N of SARS-CoV Urbani / Binding of serum 37 to looped/cyclic peptides of protein N of SARS-CoV Urbani / Binding of serum 62 to looped/cyclic peptides of protein N of SARS-CoV Urbani / Binding of serum London to looped/cyclic peptides of protein N of SARS-CoV Urbani / Binding of serum SARS-green to looped/cyclic peptides of protein N of SARS-CoV Urbani: unit not given here
sequence,measurement,setting,value
FAAYNRYRIGNYKLN,Rabbit serum linear peptides,[1],0.3
same,Rabbit serum looped peptides,[1],0.6
same,Binding of Control Serum Blood-Bank to Looped peptides of the protein M of SARS-CoV Urbani,[2],0.6
same,Binding of Control serum Blood-bank to linear peptides of the protein M of SARS-CoV Urbani,[2],0.7
same,Binding of Control serum LUMC to linear peptides of the protein M of SARS-CoV Urbani,[2],0.3
same,Binding of Control serum LUMC to looped peptides of the protein M of SARS-CoV Urbani,[2],0.7
same,Binding of serum 1a to linear peptides of protein M of SARS-CoV Urbani,[3],0.6
same,Binding of serum 1a to looped/cyclic peptides of protein M of SARS-CoV Urbani,[3],0.8
same,Binding of serum 1b to linear peptides of protein M of SARS-CoV Urbani,[3],0.3
same,Binding of serum 1b to looped/cyclic peptides of protein M of SARS-CoV Urbani,[3],0.4
same,Binding of serum 2 to linear peptides of protein M of SARS-CoV Urbani,[3],0.5
same,Binding of serum 2 to looped/cyclic peptides of protein M of SARS-CoV Urbani,[3],0.7
same,Binding of serum 6 to linear peptides of protein M of SARS-CoV Urbani,[3],0.4
same,Binding of serum 6 to looped/cyclic peptides of protein M of SARS-CoV Urbani,[3],1.3
same,Binding of serum 37 to linear peptides of protein M of SARS-CoV Urbani,[3],0.5
same,Binding of serum 37 to looped/cyclic peptides of protein M of SARS-CoV Urbani,[3],0.6
same,Binding of serum 62 to linear peptides of protein M of SARS-CoV Urbani,[3],0.7
same,Binding of serum 62 to looped/cyclic peptides of protein M of SARS-CoV Urbani,[3],0.6
same,Binding of serum London to linear peptides of protein M of SARS-CoV Urbani,[3],0.3
same,Binding of serum London to looped/cyclic peptides of protein M of SARS-CoV Urbani,[3],0.7
same,Binding of serum SARS-green to linear peptides of protein M of SARS-CoV Urbani,[3],0.2
same,Binding of serum SARS-green to looped/cyclic peptides of protein M of SARS-CoV Urbani,[3],0.2
same,Binding of serum SARS-yellow to linear peptides of protein M of SARS-CoV Urbani,[3],0.0
same,Binding of serum SARS-yellow to looped/cyclic peptides of protein M of SARS-CoV Urbani,[3],0.8
FAFACADGTRHTYQL,Rabbit serum linear peptides,[1],0.5
same,Rabbit serum looped peptides,[1],0.1
same,Binding of Control Serum Blood-Bank to Looped peptides,[2],0.8
same,Binding of Control serum Blood-bank to linear peptides,[2],0.7
same,Binding of Control serum LUMC to linear peptides,[2],0.5
same,Binding of Control serum LUMC to looped peptides,[2],0.7
same,Binding of serum 1a to linear peptides of protein X4 of SARS-CoV Urbani,[3],0.7
same,Binding of serum 1a to looped/cyclic peptides of protein X4 of SARS-CoV Urbani,[3],0.8
same,Binding of serum 1b to linear peptides of protein X4 of SARS-CoV Urbani,[3],0.5
same,Binding of serum 1b to looped/cyclic peptides of protein X4 of SARS-CoV Urbani,[3],0.5
same,Binding of serum 2 to linear peptides of protein X4 of SARS-CoV Urbani,[3],0.3
same,Binding of serum 2 to looped/cyclic peptides of protein X4 of SARS-CoV Urbani,[3],0.9
same,Binding of serum 6 to linear peptides of protein X4 of SARS-CoV Urbani,[3],0.5
same,Binding of serum 6 to looped/cyclic peptides of protein X4 of SARS-CoV Urbani,[3],0.5
same,Binding of serum 37 to linear peptides of protein X4 of SARS-CoV Urbani,[3],0.6
same,Binding of serum 37 to looped/cyclic peptides of protein X4 of SARS-CoV Urbani,[3],0.6
same,Binding of serum 62 to linear peptides of protein X4 of SARS-CoV Urbani,[3],0.7
same,Binding of serum 62 to looped/cyclic peptides of protein X4 of SARS-CoV Urbani,[3],0.5
same,Binding of serum London to linear peptides of protein X4 of SARS-CoV Urbani,[3],0.6
same,Binding of serum London to looped/cyclic peptides of protein X4 of SARS-CoV Urbani,[3],0.2
same,Binding of serum SARS-green to linear peptides of protein X4 of SARS-CoV Urbani,[3],0.4
same,Binding of serum SARS-green to looped/cyclic peptides of protein X4 of SARS-CoV Urbani,[3],0.5
same,Binding of serum SARS-yellow to linear peptides of protein X4 of SARS-CoV Urbani,[3],0.2
same,Binding of serum SARS-yellow to looped/cyclic peptides of protein X4 of SARS-CoV Urbani,[3],0.4
